According to US7888389B2 (The Regents of the University of Michigan, priority 2002, dated 2011):

Columns and labels:
[1] = Stability in open Petri dishes at room temperature (activity over time); conditions: for percentage activity: open Petri dishes at room temperature
Text: FIG. 4. […] Stability of each compound was studied under conditions that exacerbate instability, i.e. the drugs were in open Petri dishes at room temperature. The percentage activity is plotted as a function of time in days.
This study was done under conditions that exacerbate instability, ie. the drugs were in open Petri dishes at room temperature.

[2] = system: mouse sarcoma, MCA205, and mouse melanoma, B16B16; assay: Mouse tumor model, injected tumor cells; format: in vivo, C57B1/6J mice
Protocol: Under these guidelines, anti-angiogenesis therapeutic studies were conducted using TM in a mouse tumor model. This study involved subcutaneous or intramuscular injection of tumor cells into young adult C57B1/6J mice. Two tumors were used, a mouse sarcoma, MCA205, and a mouse melanoma, B16B16. The MCA 205 tumor cell suspension was injected subcutaneously into C57B16 mice. After the tumors were palpable, copper deficiency was induced by use of TM in half the animals, using Cp levels to monitor copper status. The other half were sham treated. Tumor growth was compared between the untreated control group and mice treated with sufficient TM to reduce Cp to about 10% of normal controls.

With tetrathiomolybdate [TM] the half life [1] was “about 40 days”, the percentage activity ([1]; Day 0) was 100 and the percentage activity ([1]; Day 45) was 44. For the same substance, the percentage activity ([1]; Day 148) was 9, the percentage activity ([1]; Day 211) was 0 and the “tumor growth rate, final tumor size and weight” value ([2]; TM sufficient to reduce Cp to about 10% of normal, 16 days observation) was “significant effect on reducing the growth rate of tumors, and on reducing final tumor size and weight”. The “tumor weight normalized to total weight of the animal versus control” value ([2]; mouse, in vivo) was “weighed significantly less than the tumors in control mice”.
